# Reference: patent publication US8680100B2, “Sulfonylhydrazide compounds for treating proliferative disorders” (Synta Pharmaceuticals Corp., priority 2008, dated 2014)
# pEC50: −log10 of the molar value.
# Test system: HSP70
# Assay: Hsp70 Activity Essay (HSP70 ELISA on lysates of MDA435 cells)
# Type: cell-based
# Details: concentration that increases HSP70 to 50% of maximum increase by N′1,N′3-dimethyl-N′1,N′3-di(phenylcarbonothioyl)malonohydrazide
# Method: Each well was plated with MDA435 cells using DMEM 10% FBS Phenol-red free medium 2.5 k/well and incubated in a 37° C./5% CO2 incubator for a minimum of 6 hours to obtain good cell adherence.
# Dilutions of each test compound were prepared in DMSO and DMEM 10% FBS Phenol-red free medium. The final concentration in each well was 1250 nM, 125 nM, 12.5 nM or 1.25 nM of test compound and 0.25% DMSO. 0.25% DMSO was used as a negative control. Lysis buffer (any lysis buffer suitable for use in the Assay Designs kit, e.g., such as that described in the kit instructions) was then added (amount used is one quarter of the volume already present in each plate) and the mixtures were then shaken for 10 minutes.
# 150 μL of “Can Get Signal” Immunoreaction Enhancer Solution (Solution 1 for primary antibody, TOYOBO, Catalogue No. NKB-101) were added to each of a series of ELISA plates. The ELISA plates were obtained from the HSP70 ELISA Kit (catalogue number EKS-700B) purchased from Assay Designs (Ann Arbor, Mich.). After the cells were lysed, 50 μL of lysate were taken from each well and added to an ELISA plate, resulting in a 4 fold dilution of the lysate (50 μL of lysate and 150 μL of Can Get Signal solution). The plates were covered with adhesive tape and incubated overnight at 4° C.;
# In the morning, the liquid was aspirated from all wells and 400 μL of Washing Buffer made from 20× concentrate provided in the ELISA Kit and distilled water were added and then removed by aspiration. The addition of Washing Buffer and aspiration was repeated four times. After the fourth wash, the plate were inverted to a paper towel and carefully patted dry. 100 μL of HSP70 antibody provided in ELISA Kit were added to each well. Each well was covered with adhesive tape and incubated for one hour at room temperature. Washing Buffer was then added followed by removal with aspiration. The addition of Washing Buffer and aspiration was repeated four times, after which the plates were inverted and patted dry. 100 μL of HSP70 conjugate (provided in the ELISA Kit) were added to the wells. Each well was then covered with adhesive tape and incubated for one hour at room temperature. Washing Buffer was then added followed by removal with aspiration. The addition of Washing Buffer and aspiration was repeated four times, after which the plates were inverted and patted dry.
# 100 μL of the TMB Substrate (obtained from the ELISA Kit) were added to the wells (color development was visible in 1 minute). The wells were incubated until saturated color development (usually 5-15 minutes). Stop Solution 2 (provided in the ELISA Kit) was added in the same order TMB Substrate was added. The OD450 was then obtained using a plate reader. The EC50 for the compounds was calculated using N′^1,N′^3-dimethyl-N′^1,N′^3-di(phenylcarbonothioyl)malonohydrazide on the same plate as a control (concentration that increases HSP70 to 50% of maximum increase by N′^1,N′^3-dimethyl-N′^1,N′^3-di(phenylcarbonothioyl)malonohydrazide). The EC50 for each of the compounds tested is shown in example 1.
row,pEC50,SMILES
1,7.11,"CN(NC(=O)CS(=O)(=O)NN(C)C(=S)c1ccsc1)C(=S)c1ccccc1 [Compound 57, N′-methyl-2-(2-methyl-2-(phenylcarbonothioyl)hydrazinyl)-2-oxo-N′-(thiophene-3-carbonothioyl)ethanesulfono-hydrazide]"
2,7.11,"CN(NC(=O)CS(=O)(=O)NN(C)C(=S)c1ccccc1)C(=S)c1ccsc1 [Compound 58, N′-methyl-2-(2-methyl-2-(thiophene-3-carbonothioyl)hydrazinyl)-2-oxo-N′-(phenylcarbonothioyl)ethane-sulfonohydrazide]"
3,6.89,CN(NC(=O)CS(=O)(=O)NN(C)C(=S)c1csc2ccccc12)C(=S)c1ccccc1 [Compound 59]
4,7.32,"CN(NS(=O)(=O)CC(=O)NN1CCCCC1=S)C(=S)c1ccccc1 [Compound 66, 2-(2-methyl-2-(phenylcarbonothioyl)hydrazinyl-sulfonyl)-N′-(2-thioxopiperidin-1-yl)acetamide]"
5,7.20,"CCN(CC)C(=S)N(C)NS(=O)(=O)CC(=O)NN(C)C(=S)c1ccccc1 [Compound 68, N,N-diethyl-1-methyl-2-(2-(2-methyl-2-(phenylcarbonothioyl)hydrazinyl)-2-oxoethylsulfonyl)hydrazine-carbothioamide]"
6,7.07,"CCN(CC)C(=S)N(C)NC(=O)CS(=O)(=O)NN(C)C(=S)c1ccccc1 [Compound 69, N,N′-diethyl-1-methyl-2-(2-(2-methyl-2-(phenylcarbonothioyl)hydrazinyl-sulfonyl)acetyl)hydrazine-carbothioamide]"
7,6.90,"CCN(CC)C(=S)N(C)NS(=O)(=O)CC(=O)NN(C)C(=S)c1cnccn1 [Compound 70, N,N′-diethyl-1-methyl-2-(2-(2-methyl-2-(pyrazine-2-carbonothioyl)hydrazinyl)-2-oxoethylsulfonyl)hydrazine-carbothioamide]"
8,6.52,"CN(NC(=O)CS(=O)(=O)NN(C)C(=S)C1CC1)C(=S)c1cnco1 [Compound 74, N′-(cyclopropanecarbonothioyl)-N′-methyl-2-(2-methyl-2-(oxazole-5-carbonothioyl)hydrazinyl)-2-oxoethanesulfonohydrazide]"
9,6.09,"CCCCN(NS(=O)(=O)CC(=O)NN(C)C(=S)c1ccccc1)C(=S)c1ccccc1 [Compound 75, N′-butyl-2-(2-methyl-2-(phenylcarbonothioyl)hydrazinyl)-2-oxo-N′-(phenylcarbonothioyl) ethanesulfonohydrazide]"
10,5.93,"CN(NS(=O)(=O)CC(=O)NN(C)C(=S)C1CC1)C(=S)c1cncs1 [Compound 76, 2-(2-(cyclopropanecarbonothioyl)-2-methylhydrazinyl)-N′-methyl-2-oxo-N′-(thiazole-5-carbonothioyl)-ethanesulfonohydrazide]"
11,6.01,"CN(NS(=O)(=O)CC(=O)NN(C)C(=S)C1CC1)C(=S)c1cnco1 [Compound 77, 2-(2-(cyclopropanecarbonothioyl)-2-methylhydrazinyl)-N′-methyl-N′-(oxazole-5-carbonothioyl)-2-oxoethanesulfonohydrazide]"
12,6.86,"CN(NC(=O)CS(=O)(=O)NN(C)C(=S)c1ccccc1F)C(=S)c1ccccc1 [Compound 80, N′-(2-fluorophenylcarbonothioyl)-N′-methyl-2-(2-methyl-2-(phenylcarbonothioyl)hydrazinyl)-2-oxoethanesulfonohydrazide]"
13,6.45,"CN(NS(=O)(=O)CC(=O)NN(C)C(=S)c1ccccc1C(F)(F)F)C(=S)c1ccccc1 [Compound 81, N′-methyl-2-(2-methyl-2-(2-(trifluoromethyl)phenylcarbono-thioyl)hydrazinyl)-2-oxo-N′-(phenylcarbonothioyl)ethane-sulfonohydrazide]"
14,6.76,"CN(NS(=O)(=O)CC(=O)NN(C)C(=S)c1ccccc1F)C(=S)c1ccccc1 [Compound 82, 2-(2-(2-fluorophenylcarbonothioyl)-2-methylhydrazinyl)-N′-methyl-2-oxo-N′-(phenylcarbonothioyl)ethane-sulfonohydrazide]"
15,6.84,"CN(NC(=O)CS(=O)(=O)NN(C)C(=S)C1CC1)C(=S)c1cccc(C(F)(F)F)n1 [Compound 84, N′-(cyclopropanecarbonothioyl)-N′-methyl-2-(2-methyl-2-(6-(trifluoromethyl)pyridine-2-carbonothioyl)hydrazinyl)-2-oxoethanesulfonohydrazide]"
16,7.22,"COCC(=S)N(C)NC(=O)CS(=O)(=O)NN(C)C(=S)c1ccccc1 [Compound 85, 2-(2-(2-methoxyethanethioyl)-2-methylhydrazinyl)-N′-methyl-2-oxo-N′-(phenylcarbonothioyl)ethane-sulfonohydrazide]"
17,7.68,"CC(=S)N(C)NC(=O)CS(=O)(=O)NN(C)C(=S)c1ccccc1 [Compound 86, 2-(2-ethanethioyl-2-methylhydrazinyl)-N′-methyl-2-oxo-N′-(phenylcarbonothioyl)ethane-sulfonohydrazide]"
18,6.95,"CN(NC(=O)C(=CN)S(=O)(=O)NN(C)C(=S)C1CC1)C(=S)C1CC1 [Compound 87, 1-amino-N′-(cyclopropanecarbonothioyl)-3-(2-(cyclopropanecarbonothioyl)-2-methyl-hydrazinyl)-N′-methyl-3-oxoprop-1-ene-2-sulfonohydrazide]"
19,6.68,"CN(C)C=C(C(=O)NN(C)C(=S)C1CC1)S(=O)(=O)NN(C)C(=S)C1CC1 [Compound 88, N′-(cyclopropanecarbonothioyl)-3-(2-(cyclopropanecarbonothioyl)-2-methylhydrazinyl)-1-(dimethylamino)-N′-methyl-3-oxoprop-1-ene-2-sulfonohydrazide]"
20,6.70,"CNC=C(C(=O)NN(C)C(=S)C1CC1)S(=O)(=O)NN(C)C(=S)C1CC1 [Compound 89, N′-(cyclopropanecarbonothioyl)-3-(2-(cyclopropanecarbonothioyl)-2-methylhydrazinyl)-N′-methyl-1-(methylamino)-3-oxoprop-1-ene-2-sulfonohydrazide]"
21,6.64,"CN(NC(=O)C(=CNC1CC1)S(=O)(=O)NN(C)C(=S)C1CC1)C(=S)C1CC1 [Compound 90, N′-(cyclopropanecarbonothioyl)-3-(2-(cyclopropanecarbonothioyl)-2-methylhydrazinyl)-1-(cyclopropylamino)-N′-methyl-3-oxoprop-1-ene-2-sulfonohydrazide]"
22,6.64,"CC(C)NC=C(C(=O)NN(C)C(=S)C1CC1)S(=O)(=O)NN(C)C(=S)C1CC1 [Compound 91, N′-(cyclopropanecarbonothioyl)-3-(2-(cyclopropanecarbonothioyl)-2-methylhydrazinyl)-1-(isopropylamino)-N′-methyl-3-oxoprop-1-ene-2-sulfonohydrazide]"
